Data on 25 molecules can be found in patent publication US20240360154A1, “AROYL SUBSTITUTED TRICYCLIC COMPOUND, PREPARATION METHOD THEREFOR AND USE THEREOF” (GENFLEET THERAPEUTICS (SHANGHAI) INC., priority 2020, published 2024).

In one assay the target is BTK (Homo sapiens (Human), UniProt Q06187). Put plainly: BTK enzyme experiment (ADP-Glo kinase assay). The class given is biochemical. The note with it: 10 nM BTK, ATP 125 μM, Poly(Glu4, Tyr1), 90 minutes at 20° C.; read-out: BTK(WT) IC50. Here is the method:
(§1) A 3-fold gradient concentration stock solution of 1000× compound was prepared using DMSO and diluted 100-fold to 10× compound stock solution using reaction buffer (50 mM HEPES, pH 7.5, 0.0015% Briji-35, 2 mM DTT, 10 mM MgCl2), and the 10× compound stock solution was transferred to a 384-well plate. Enzyme reactions were set up with BTK Kinase Enzyme System (Promega Catalog #V2941) or BTK (C481S) Kinase Enzyme System (Promega Catalog #VA7033). First, a 2× enzyme solution containing 10 nM BTK or 10 nM BTK C481S was prepared with reaction buffer and added to the plate, and incubated with the compound for 10 minutes. […] Finally, the kinase activity was detected according to the experimental steps provided by ADP-Glo™ kinase Assay Kit (Promega, #V9101), and finally the luminescence chemiluminescence value was read. DMSO was used as the maximum signal value, and adding no enzyme was used as the minimum signal value. The inhibition rate of the compound (%)=(maximum signal value−compound signal value)/(maximum signal value−minimum signal value)×100% was calculated. The compound gradient dilution concentration and the corresponding inhibition rate of the enzyme activity were fit by using XLFit four-parameter method, and IC50 value was calculated.

The next assay has as its target BTK (C481S) (Homo sapiens (Human), UniProt Q06187, C481S). Put plainly: BTK C481S enzyme experiment (ADP-Glo kinase assay). The class given is biochemical. The note with it: 10 nM BTK C481S, ATP 125 μM, Poly(Glu4, Tyr1), 90 minutes at 20° C. Here is the method:
as §1
(ADP-Glo first removes unused ATP, then detects ADP through luciferase.)

Chain of BTK (C481S) (Q06187 whole entry C481S): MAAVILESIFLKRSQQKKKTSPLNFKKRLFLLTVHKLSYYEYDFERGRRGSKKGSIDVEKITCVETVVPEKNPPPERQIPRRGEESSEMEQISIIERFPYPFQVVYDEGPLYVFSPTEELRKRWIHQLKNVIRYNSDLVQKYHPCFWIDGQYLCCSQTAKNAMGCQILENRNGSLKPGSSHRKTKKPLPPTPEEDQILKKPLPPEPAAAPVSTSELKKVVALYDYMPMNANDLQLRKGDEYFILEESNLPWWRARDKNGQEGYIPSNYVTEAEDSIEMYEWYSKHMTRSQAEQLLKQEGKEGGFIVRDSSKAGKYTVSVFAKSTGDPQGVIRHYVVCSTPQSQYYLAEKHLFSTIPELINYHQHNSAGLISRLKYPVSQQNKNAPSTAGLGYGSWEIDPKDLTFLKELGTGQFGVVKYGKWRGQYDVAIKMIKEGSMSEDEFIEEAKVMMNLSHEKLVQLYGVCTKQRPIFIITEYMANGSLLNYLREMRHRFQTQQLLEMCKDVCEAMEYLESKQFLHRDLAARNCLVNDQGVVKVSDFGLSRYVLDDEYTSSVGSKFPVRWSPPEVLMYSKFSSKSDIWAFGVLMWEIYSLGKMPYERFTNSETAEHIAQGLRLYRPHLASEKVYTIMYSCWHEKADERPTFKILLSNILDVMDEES
Chain of BTK (Q06187 whole entry): as the sequence (Q06187 whole entry C481S) above, with S481C counted along it

With `COCCOCC1(C)Nc2c(cnc3[nH]cc(C(=O)c4ccc(Oc5ccccc5)cc4Cl)c23)NC1=O` (single isomer, unassigned) [Z153-2, 9-(2-chloro-4-phenoxybenzoyl)-2-((2-methoxyethoxy)methyl)-2-methyl-1,2,4,7-tetrahydro-3H-pyrrolo[3′,2′:5,6]pyrido[3,4-b]pyrazin-3-one], the IC50 at BTK turned out to be 114 nM; on BTK (C481S), 51.1 nM.
With `CN(C)CCN1C(=O)C(C)(C)Nc2c1cnc1[nH]cc(C(=O)c3ccc(Oc4ccccc4)cc3Cl)c21` [Z63], the values for the IC50 at BTK and against BTK (C481S) were 185 nM and 129 nM, respectively.
On to `COC[C@]1(C)Nc2c(cnc3[nH]cc(C(=O)c4ccccc4Cl)c23)N=C1OC` [Z200, (S)-(2-chlorophenyl)(3-methoxy-2-(methoxymethyl)-2-methyl-2,7-dihydro-1H-pyrrolo[3′,2′:5,6]pyrido[3,4-b]pyrazin-9-yl)methanone], for which the figures for the IC50 at BTK and against BTK (C481S) were 18.8 nM and 9.9 nM, respectively.
As for `COCC1(C)Nc2c(cnc3[nH]cc(C(=O)c4ccc(Oc5cc(C)ccn5)cc4Cl)c23)NC1=O` (single isomer, unassigned) [Z64-2, 9-(2-chloro-4-((4-methylpyridin-2-yl)oxy)benzoyl)-2-(methoxymethyl)-2-methyl-1,2,4,7-tetrahydro-3H-pyrrolo[3′,2′:5,6]pyrido[3,4-b]pyrazin-3-one], the results for the IC50 at BTK and against BTK (C481S) were 8.4 nM and 17.2 nM, respectively.
For the molecule `COC[C@]1(C)Nc2c(cnc3[nH]cc(C(=O)c4ccccc4Br)c23)NC1=O` [Z86, (S)-9-(2-bromobenzoyl)-2-(methoxymethyl)-2-methyl-1,2,4,7-tetrahydro-3H-pyrrolo[3′,2′:5,6]pyrido[3,4-b]pyrazin-3-one], the IC50 at BTK amounted to 16 nM; against BTK (C481S) it was 9.7 nM.
`[2H]C([2H])([2H])OC[C@]1(C)Nc2c(cnc3[nH]cc(C(=O)c4ccc(Cn5cccn5)cc4Cl)c23)NC1=O` [Z170, (S)-9-(4-((1H-pyrazol-1-yl)methyl)-2-chlorobenzoyl)-2-((methoxy-d3)methyl)-2-methyl-1,2,4,7-tetrahydro-3H-pyrrolo[3′,2′:5,6]pyrido[3,4-b]pyrazin-3-one]: the IC50 at BTK was determined as 28.4 nM; at BTK (C481S), 36.5 nM.
The corresponding values for `COC[C@]1(C)Nc2c(cnc3[nH]cc(C(=O)c4ccc(Oc5ccccc5)cc4F)c23)NC1=O` (single isomer, unassigned) [Z71-2] are 23.5 nM and 19.2 nM.
Consider `COCC1(C)Nc2c(cnc3[nH]cc(C(=O)c4ccc(Oc5cc(C)ccn5)cc4F)c23)NC1=O` (single isomer, unassigned) [Z69-1, 9-(2-fluoro-4-((4-methylpyridin-2-yl)oxy)benzoyl)-2-(methoxymethyl)-2-methyl-1,2,4,7-tetrahydro-3H-pyrrolo[3′,2′:5,6]pyrido[3,4-b]pyrazin-3-one], for which the IC50 stood at 13.9 nM on BTK and 21.2 nM against BTK (C481S).
As for `COC[C@]1(C)Nc2c(cnc3[nH]cc(C(=O)c4ncc(Oc5ccccc5)cc4Cl)c23)NC1=O` [Z133], the IC50 on BTK is 28.8 nM; at BTK (C481S), 38.4 nM.
Take `CC1(C)COc2cnc3[nH]cc(C(=O)c4ccccc4Cl)c3c2N1` [Z198, (2-chlorophenyl)(2,2-dimethyl-1,2,3,7-tetrahydropyrrolo[3′,2′:5,6]pyrido[3,4-b][1,4]oxazin-9-yl)methanone]: the IC50 on BTK amounted to 17.4 nM; at BTK (C481S), 15.1 nM.
In the case of `COC[C@]1(C)Nc2c(cnc3[nH]cc(C(=O)c4cc(F)ccc4Cl)c23)NC1=O` [Z85, (S)-9-(2-chloro-5-fluorobenzoyl)-2-(methoxymethyl)-2-methyl-1,2,4,7-tetrahydro-3H-pyrrolo[3′,2′:5,6]pyrido[3,4-b]pyrazin-3-one], the IC50 at BTK was found to be 15.2 nM; on BTK (C481S) it was 18.5 nM.
Consider `CCSC1=Nc2cnc3[nH]cc(C(=O)c4ccc(Oc5ccccc5)cc4Cl)c3c2N[C@@]1(C)COC` [Z203, (S)-(2-chloro-4-phenoxyphenyl)(3-(ethylthio)-2-(methoxymethyl)-2-methyl-2,7-dihydro-1H-pyrrolo[3′,2′:5,6]pyrido[3,4-b]pyrazin-9-yl)methanone], for which the IC50 at BTK is 75.1 nM; against BTK (C481S), 142 nM.
As for `COCC1(C)Nc2c(cnc3[nH]cc(C(=O)c4ccc(Oc5cc(C6CC6)ccn5)cc4Cl)c23)NC1=O` (single isomer, unassigned) [Z73-1, 9-(2-chloro-4-((4-cyclopropylpyridin-2-yl)oxy)benzoyl)-2-(methoxymethyl)-2-methyl-4,7-dihydro-1H-pyrrolo[3′,2′:5,6]pyrido[3,4-b]pyrazin-3(2H)-one], the IC50 at BTK was 15.3 nM; on BTK (C481S), 29.5 nM.
The corresponding values for `COC[C@]1(C)Nc2c(cnc3[nH]cc(C(=O)c4ccc(OC)c(F)c4Cl)c23)NC1=O` [Z194, (S)-9-(2-chloro-3-fluoro-4-methoxybenzoyl)-2-(methoxymethyl)-2-methyl-1,2,4,7-tetrahydro-3H-pyrrolo[3′,2′:5,6]pyrido[3,4-b]pyrazin-3-one] are 47.3 nM and 77.4 nM.
The corresponding values for `[2H]C([2H])([2H])N1C(=O)[C@](C)(COC)Nc2c1cnc1[nH]cc(C(=O)c3ccc(Oc4ccccc4)cc3Cl)c21` [Z190, (S)-9-(2-chloro-4-phenoxybenzoyl)-2-(methoxymethyl)-2-methyl-4-(methyl-d3)-1,2,4,7-tetrahydro-3H-pyrrolo[3′,2′:5,6]pyrido[3,4-b]pyrazin-3-one] are 16.3 nM and 20.1 nM.
Take `COCC1(C)Nc2c(cnc3[nH]cc(C(=O)c4ccc(Oc5cc(C)ccn5)cc4F)c23)NC1=O` (centres unmarked) [Z69, 9-(2-fluoro-4-((4-methylpyridin-2-yl)oxy)benzoyl)-2-(methoxymethyl)-2-methyl-1,2,4,7-tetrahydro-3H-pyrrolo[3′,2′:5,6]pyrido[3,4-b]pyrazin-3-one]: the IC50 at BTK stood at 34.8 nM; on BTK (C481S) it was 28 nM.
For the molecule `[2H]C([2H])([2H])OC[C@]1(C)Nc2c(cnc3[nH]cc(C(=O)c4ccc(Cn5nccc5C)cc4Cl)c23)NC1=O` [Z175, (S)-9-(2-chloro-4-((5-methyl-1H-pyrazol-1-yl)methyl)benzoyl)-2-((methoxy-d3)methyl)-2-methyl-1,2,4,7-tetrahydro-3H-pyrrolo[3′,2′:5,6]pyrido[3,4-b]pyrazin-3-one], the IC50 turned out to be 74.4 nM at BTK and 76.5 nM against BTK (C481S).
The corresponding values for `[2H]C([2H])([2H])OC[C@]1(C)Nc2c(cnc3[nH]cc(C(=O)c4ccc(Cn5ccc(C)n5)cc4Cl)c23)NC1=O` [Z174, (S)-9-(2-chloro-4-((3-methyl-1H-pyrazol-1-yl)methyl)benzoyl)-2-((methoxy-d3)methyl)-2-methyl-1,2,4,7-tetrahydro-3H-pyrrolo[3′,2′:5,6]pyrido[3,4-b]pyrazin-3-one] are 76.6 nM and 115 nM.
The corresponding values for `[2H]C([2H])([2H])OC[C@]1(C)Nc2c(cnc3[nH]cc(C(=O)c4ccc(Oc5ccccc5)cc4Cl)c23)N(C([2H])([2H])[2H])C1=O` [Z193, (S)-9-(2-chloro-4-phenoxybenzoyl)-2-((methoxy-d3)methyl)-2-methyl-4-(methyl-d3)-1,2,4,7-tetrahydro-3H-pyrrolo[3′,2′:5,6]pyrido[3,4-b]pyrazin-3-one] are 19.1 nM and 21.9 nM.
Take `O=C(c1ccc(Oc2ccccc2)cc1Cl)c1c[nH]c2ncc3c(c12)NC1(CCOC1)CO3` (centres unmarked) [Z18]: the IC50 at BTK stood at 145 nM; at BTK (C481S), 87.7 nM.
For the molecule `COC[C@]1(C)Nc2c(cnc3[nH]cc(C(=O)c4ccc(OC5CCCC5)cc4Cl)c23)NC1=O` [Z122, (S)-9-(2-chloro-4-(cyclopentyloxy)benzoyl)-2-(methoxymethyl)-2-methyl-1,2,4,7-tetrahydro-3H-pyrrolo[3′,2′:5,6]pyrido[3,4-b]pyrazin-3-one], the IC50 was found to be 64.1 nM at BTK and 70.5 nM at BTK (C481S).
Consider `COC[C@]1(C)Nc2c(cnc3[nH]cc(C(=O)c4ccccc4Cl)c23)N=C1SC` [Z199, (S)-(2-chlorophenyl)(2-(methoxymethyl)-2-methyl-3-(methylthio)-2,7-dihydro-1H-pyrrolo[3′,2′:5,6]pyrido[3,4-b]pyrazin-9-yl)methanone], for which the IC50 at BTK came to 42.6 nM; at BTK (C481S) it was 23.2 nM.
As to `COCC1(C)Nc2c(cnc3[nH]cc(C(=O)c4ccc(Oc5cc(C6CC6)ccn5)cc4Cl)c23)NC1=O` (single isomer, unassigned) [Z73-2, 9-(2-chloro-4-((4-cyclopropylpyridin-2-yl)oxy)benzoyl)-2-(methoxymethyl)-2-methyl-4,7-dihydro-1H-pyrrolo[3′,2′:5,6]pyrido[3,4-b]pyrazin-3(2H)-one], the IC50 came out at 34.3 nM on BTK and 60.8 nM against BTK (C481S).
For `CCOC[C@@]1(C)Nc2c(cnc3[nH]cc(C(=O)c4ccc(Oc5ccccc5)cc4Cl)c23)NC1=O` (single isomer, unassigned) [Z67-2], the IC50 at BTK stood at 20.4 nM; at BTK (C481S), 17.8 nM.
Consider `COCCN1C(=O)[C@](C)(COC)Nc2c1cnc1[nH]cc(C(=O)c3ccc(Oc4ccccc4)cc3Cl)c21` [Z142], for which the IC50 on BTK stood at 35.2 nM; at BTK (C481S), 19.7 nM.

What is called IC50 is the concentration needed to halve the response being measured.
